Consider three compounds from ChEMBL document CHEMBL1159163, “Amselamine, a new selective histamine H2-receptor agonist” (Bioorg Med Chem Lett, 1994).

The target in data set [1] is Histamine H3 receptor (Cavia porcellus) (UniProt Q9JI35). Nature of the data set: Tested for affinity towards Histamine H3 receptor in electrically stimulated guinea pig jejunum. The data set is classed as tissue-based.
For data set [2], the target named is Histamine H2 receptor (Cavia porcellus) (UniProt P47747). Nature of the data set: Histamine H2 receptor activity was determined on the isolated spontaneously beating guinea pig right atrium. The settings on record: Cardiac atrium. The data set is classed as tissue-based.
Sequence of Histamine H2 receptor (Cavia porcellus) (P47747 whole entry): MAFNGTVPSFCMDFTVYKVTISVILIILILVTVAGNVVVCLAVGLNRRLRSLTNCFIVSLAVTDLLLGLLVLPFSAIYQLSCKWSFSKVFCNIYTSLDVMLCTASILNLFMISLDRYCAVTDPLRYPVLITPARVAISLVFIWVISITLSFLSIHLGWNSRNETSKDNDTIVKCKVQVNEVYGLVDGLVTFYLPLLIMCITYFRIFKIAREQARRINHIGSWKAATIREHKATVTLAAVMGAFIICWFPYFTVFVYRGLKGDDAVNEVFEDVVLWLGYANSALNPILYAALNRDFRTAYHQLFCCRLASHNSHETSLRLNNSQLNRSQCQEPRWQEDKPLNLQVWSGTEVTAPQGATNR
The target in a further data set is Histamine H2 receptor (Rattus norvegicus, UniProt P25102). Nature of the data set: Affinity to the Histamine H2 receptor was determined expressed in CHO cell using [125I]iodoaminopotentidine as radioligand. The data set is classed as cell-based.
Sequence of Histamine H2 receptor (P25102 whole entry): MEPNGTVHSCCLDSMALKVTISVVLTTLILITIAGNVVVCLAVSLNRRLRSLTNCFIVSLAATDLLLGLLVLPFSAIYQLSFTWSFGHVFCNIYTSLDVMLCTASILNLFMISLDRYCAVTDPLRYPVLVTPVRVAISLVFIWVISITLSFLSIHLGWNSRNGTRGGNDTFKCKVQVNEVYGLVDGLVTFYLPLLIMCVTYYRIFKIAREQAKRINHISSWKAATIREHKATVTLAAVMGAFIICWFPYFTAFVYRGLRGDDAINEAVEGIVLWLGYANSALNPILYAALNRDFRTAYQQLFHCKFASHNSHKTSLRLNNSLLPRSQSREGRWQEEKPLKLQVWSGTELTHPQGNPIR
The target of a further data set is Histamine H1 receptor (Cavia porcellus, UniProt P31389). The data set can be described thus: Tested for affinity towards H1 receptor in guinea pig ileum. The data set is classed as tissue-based. The conditions noted are these: read-out: pA2 (converted).
Sequence of Histamine H1 receptor (P31389 whole entry): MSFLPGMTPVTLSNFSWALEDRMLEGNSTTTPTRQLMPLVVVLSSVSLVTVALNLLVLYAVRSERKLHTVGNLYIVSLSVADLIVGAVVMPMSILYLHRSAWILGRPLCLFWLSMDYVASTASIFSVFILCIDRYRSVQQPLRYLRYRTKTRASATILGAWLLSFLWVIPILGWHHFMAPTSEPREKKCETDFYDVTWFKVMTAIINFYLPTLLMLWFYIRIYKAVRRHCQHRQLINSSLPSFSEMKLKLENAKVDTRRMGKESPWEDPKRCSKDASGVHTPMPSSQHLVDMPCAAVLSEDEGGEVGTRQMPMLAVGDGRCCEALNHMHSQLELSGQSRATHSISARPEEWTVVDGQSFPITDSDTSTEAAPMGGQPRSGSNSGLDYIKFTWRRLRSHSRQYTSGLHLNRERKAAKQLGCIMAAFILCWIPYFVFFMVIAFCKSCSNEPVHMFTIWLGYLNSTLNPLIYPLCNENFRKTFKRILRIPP
Data set [3] in a line: pKa2 (heterocyclic ring). The data set is classed as physicochemical. The settings on record: read-out: pKa2.
The nature of data set [4]: pKa1 (aliphatic amine). The class given is physicochemical. The settings on record: read-out: pKa1.

Sequence of Histamine H3 receptor (Cavia porcellus) (Q9JI35 whole entry): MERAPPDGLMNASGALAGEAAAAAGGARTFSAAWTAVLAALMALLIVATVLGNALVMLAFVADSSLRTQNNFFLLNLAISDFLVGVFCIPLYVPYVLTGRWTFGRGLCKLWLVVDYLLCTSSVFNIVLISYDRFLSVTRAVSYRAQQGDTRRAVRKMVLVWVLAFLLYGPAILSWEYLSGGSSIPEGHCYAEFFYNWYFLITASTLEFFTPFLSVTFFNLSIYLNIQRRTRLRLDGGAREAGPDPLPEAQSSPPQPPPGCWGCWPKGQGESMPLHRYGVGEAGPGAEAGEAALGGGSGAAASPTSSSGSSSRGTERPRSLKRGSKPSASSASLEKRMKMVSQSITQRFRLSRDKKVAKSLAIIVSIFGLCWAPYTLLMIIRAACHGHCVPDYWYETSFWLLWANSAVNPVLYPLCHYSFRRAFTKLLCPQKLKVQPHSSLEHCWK

The term Kd denotes the constant that tells how readily two partners part at equilibrium. `Cc1nc(N)[se]c1CCN`: the results for the pD2 in data set [1] and in data set [2] were 4.44 and 6.41, respectively. Also, the Kd on Histamine H2 receptor was 9.77 µM. The Kb on Histamine H1 receptor was 141 µM. For the same compound, the pKa in data set [3] worked out at 5.78; in data set [4] it was 9.21.
For the compound `Cc1nc(N)sc1CCN` [AMTHAMINE], on Histamine H2 receptor, the Kd was 11.5 µM. The figures for the pKa in data set [3] and in data set [4] were 5.4 and 9.15, respectively.
`NCCc1c[nH]cn1` [HISTAMINE] gave a Kd at Histamine H2 receptor of 117 µM. The pKa amounted to 5.93 in data set [3] and 9.32 in data set [4].
